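In this assay, cells in 96-well plates receive the compound at five concentrations for 48 hours. Endpoints are linearly interpolated between the surrounding concentrations. Abbreviation: GI50, concentration required for 50% inhibition of growth.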 Active and inactive are the calls of the source. Cut-off read from the data, not from the text of the source: active = GI50 up to about 1.1 µM and inactive = higher.
Legend:
Test in all cases: NCI-60 cell line screen, 48 h
HCC 2998 = tested on: HCC 2998
EKVX = tested on: EKVX
SF-539 = tested on: SF-539
RXF 393 = tested on: RXF 393
SF-295 = tested on: SF-295
HT-29 = tested on: HT-29
OVCAR-3 = tested on: OVCAR-3
Malme-3M = tested on: Malme-3M
HCT-15 = tested on: HCT-15
HCT-116 = tested on: HCT-116
HOP-62 = tested on: HOP-62
HL-60 = tested on: HL-60
SK-OV-3 = tested on: SK-OV-3
DU-145 = tested on: DU-145
NCI-H23 = tested on: NCI-H23
LOX IMVI = tested on: LOX IMVI
RPMI-8226 = tested on: RPMI-8226
OVCAR-5 = tested on: OVCAR-5
TK-10 = tested on: TK-10
UACC-62 = tested on: UACC-62
SR = tested on: SR
786-0 = tested on: 786-0
K562 = tested on: K562
IGROV-1 = tested on: IGROV-1
NCI-H522 = tested on: NCI-H522
CAKI-1 = tested on: CAKI-1
MOLT-4 = tested on: MOLT-4
U-251 = tested on: U-251
SNB-19 = tested on: SNB-19
SNB-75 = tested on: SNB-75
M14 = tested on: M14
MDA-MB-435 = tested on: MDA-MB-435
NCI/ADR-RES = tested on: NCI/ADR-RES
SN12C = tested on: SN12C
NCI-H460 = tested on: NCI-H460
PC-3 = tested on: PC-3
NCI-H226 = tested on: NCI-H226
CCRF-CEM = tested on: CCRF-CEM
MDA-N = tested on: MDA-N
HOP-92 = tested on: HOP-92
OVCAR-8 = tested on: OVCAR-8
SK-MEL-5 = tested on: SK-MEL-5
KM12 = tested on: KM12
A549 = tested on: A549
T47D = tested on: T47D
SF-268 = tested on: SF-268
Hs-578T = tested on: Hs-578T
UACC-257 = tested on: UACC-257
UO-31 = tested on: UO-31
SW-620 = tested on: SW-620
COLO 205 = tested on: COLO 205
BT-549 = tested on: BT-549
ACHN = tested on: ACHN
OVCAR-4 = tested on: OVCAR-4
SK-MEL-28 = tested on: SK-MEL-28
SK-MEL-2 = tested on: SK-MEL-2
MCF7 = tested on: MCF7
MDA-MB-231 = tested on: MDA-MB-231
A498 = tested on: A498

Q: Which results are given for CCCn1c(=O)c2nn3c(=O)n(CCC)c(=O)c3nn2c1=O?
A: GI50 (HCC 2998): > 100 µM (inactive); GI50 (EKVX): > 100 µM (inactive); GI50 (SF-539): > 100 µM (inactive); GI50 (RXF 393): > 100 µM (inactive); GI50 (SF-295): > 100 µM (inactive); GI50 (HT-29): > 100 µM (inactive); GI50 (OVCAR-3): > 100 µM (inactive); GI50 (Malme-3M): > 100 µM (inactive); GI50 (HCT-15): > 100 µM; GI50 (HCT-116): > 100 µM (inactive); GI50 (HOP-62): > 100 µM (inactive); GI50 (HL-60): > 100 µM (inactive); GI50 (SK-OV-3): > 100 µM (inactive); GI50 (DU-145): > 100 µM (inactive); GI50 (NCI-H23): > 100 µM (inactive); GI50 (LOX IMVI): > 100 µM (inactive); GI50 (RPMI-8226): > 100 µM (inactive); GI50 (OVCAR-5): > 100 µM (inactive); GI50 (TK-10): > 100 µM (inactive); GI50 (UACC-62): > 100 µM (inactive); GI50 (SR): > 100 µM (inactive); GI50 (786-0): > 100 µM (inactive); GI50 (K562): > 100 µM (inactive); GI50 (IGROV-1): > 100 µM (inactive); GI50 (NCI-H522): > 100 µM (inactive); GI50 (CAKI-1): > 100 µM (inactive); GI50 (MOLT-4): > 100 µM (inactive); GI50 (U-251): > 100 µM (inactive); GI50 (SNB-19): > 100 µM (inactive); GI50 (SNB-75): > 100 µM (inactive); GI50 (M14): > 100 µM (inactive); GI50 (MDA-MB-435): > 100 µM (inactive); GI50 (NCI/ADR-RES): > 100 µM (inactive); GI50 (SN12C): > 100 µM (inactive); GI50 (NCI-H460): > 100 µM (inactive); GI50 (PC-3): > 100 µM (inactive); GI50 (NCI-H226): > 100 µM (inactive); GI50 (CCRF-CEM): > 100 µM (inactive); GI50 (MDA-N): > 100 µM (inactive); GI50 (HOP-92): > 100 µM (inactive); GI50 (OVCAR-8): > 100 µM (inactive); GI50 (SK-MEL-5): > 100 µM (inactive); GI50 (KM12): > 100 µM (inactive); GI50 (A549): > 100 µM (inactive); GI50 (T47D): > 100 µM (inactive); GI50 (SF-268): > 100 µM (inactive); GI50 (Hs-578T): > 100 µM (inactive); GI50 (UACC-257): > 100 µM (inactive); GI50 (UO-31): > 100 µM (inactive); GI50 (SW-620): > 100 µM (inactive); GI50 (COLO 205): > 100 µM (inactive); GI50 (BT-549): > 100 µM (inactive); GI50 (ACHN): > 100 µM (inactive); GI50 (OVCAR-4): > 100 µM (inactive); GI50 (SK-MEL-28): > 100 µM (inactive); GI50 (SK-MEL-2): > 100 µM (inactive); GI50 (MCF7): > 100 µM (inactive)

Q: Which results are given for CC1(C)CC2(C)CC1CC2NC(=O)CCN1CCOCC1 (stereo not drawn)?
A: GI50 (HCC 2998): > 100 µM (inactive); GI50 (EKVX): > 100 µM (inactive); GI50 (SF-539): > 100 µM (inactive); GI50 (RXF 393): > 100 µM (inactive); GI50 (SF-295): > 100 µM (inactive); GI50 (HT-29): > 100 µM (inactive); GI50 (OVCAR-3): > 100 µM (inactive); GI50 (Malme-3M): > 100 µM (inactive); GI50 (MDA-MB-231): > 100 µM (inactive); GI50 (HCT-116): > 100 µM (inactive); GI50 (HOP-62): > 100 µM (inactive); GI50 (HL-60): > 100 µM (inactive); GI50 (SK-OV-3): > 100 µM (inactive); GI50 (DU-145): > 100 µM (inactive); GI50 (NCI-H23): > 100 µM (inactive); GI50 (OVCAR-5): > 100 µM (inactive); GI50 (TK-10): > 100 µM (inactive); GI50 (UACC-62): > 100 µM (inactive); GI50 (SR): > 100 µM (inactive); GI50 (786-0): > 100 µM (inactive); GI50 (K562): > 100 µM (inactive); GI50 (IGROV-1): > 100 µM (inactive); GI50 (NCI-H522): > 100 µM (inactive); GI50 (CAKI-1): > 100 µM (inactive); GI50 (MOLT-4): > 100 µM (inactive); GI50 (U-251): > 100 µM (inactive); GI50 (SNB-19): > 100 µM (inactive); GI50 (SNB-75): > 100 µM (inactive); GI50 (M14): > 100 µM (inactive); GI50 (MDA-MB-435): > 100 µM (inactive); GI50 (SN12C): > 100 µM (inactive); GI50 (A498): > 100 µM (inactive); GI50 (NCI-H460): > 100 µM (inactive); GI50 (PC-3): > 100 µM (inactive); GI50 (NCI-H226): > 100 µM (inactive); GI50 (CCRF-CEM): > 100 µM (inactive); GI50 (MDA-N): > 100 µM (inactive); GI50 (HOP-92): > 100 µM (inactive); GI50 (OVCAR-8): > 100 µM (inactive); GI50 (SK-MEL-5): > 100 µM (inactive); GI50 (KM12): > 100 µM (inactive); GI50 (A549): > 100 µM (inactive); GI50 (T47D): > 100 µM (inactive); GI50 (SF-268): > 100 µM (inactive); GI50 (Hs-578T): > 100 µM (inactive); GI50 (UACC-257): > 100 µM (inactive); GI50 (UO-31): > 100 µM (inactive); GI50 (SW-620): > 100 µM (inactive); GI50 (COLO 205): > 100 µM (inactive); GI50 (BT-549): > 100 µM (inactive); GI50 (ACHN): > 100 µM (inactive); GI50 (OVCAR-4): > 100 µM (inactive); GI50 (SK-MEL-28): > 100 µM (inactive); GI50 (MCF7): > 100 µM (inactive)

Q: Which results are given for CCOC(=O)c1cc(=O)c2cccc3c2n1CCS3?
A: GI50 (EKVX): > 100 µM (inactive); GI50 (SF-539): > 100 µM (inactive); GI50 (SF-295): > 100 µM (inactive); GI50 (HT-29): > 100 µM (inactive); GI50 (OVCAR-3): > 100 µM (inactive); GI50 (MDA-MB-231): > 100 µM (inactive); GI50 (HCT-15): > 100 µM; GI50 (HCT-116): > 100 µM (inactive); GI50 (HOP-62): > 100 µM (inactive); GI50 (HL-60): > 100 µM (inactive); GI50 (SK-OV-3): > 100 µM (inactive); GI50 (DU-145): > 100 µM (inactive); GI50 (NCI-H23): > 100 µM (inactive); GI50 (LOX IMVI): > 100 µM (inactive); GI50 (OVCAR-5): > 100 µM (inactive); GI50 (TK-10): > 100 µM (inactive); GI50 (UACC-62): > 100 µM (inactive); GI50 (786-0): > 100 µM (inactive); GI50 (IGROV-1): > 100 µM (inactive); GI50 (NCI-H522): 91.4 µM (inactive); GI50 (CAKI-1): > 100 µM (inactive); GI50 (MOLT-4): > 100 µM (inactive); GI50 (U-251): > 100 µM (inactive); GI50 (SNB-19): > 100 µM (inactive); GI50 (SNB-75): > 100 µM (inactive); GI50 (M14): > 100 µM (inactive); GI50 (MDA-MB-435): > 100 µM (inactive); GI50 (NCI/ADR-RES): > 100 µM (inactive); GI50 (SN12C): > 100 µM (inactive); GI50 (A498): 83.8 µM (inactive); GI50 (NCI-H460): 83.9 µM (inactive); GI50 (PC-3): > 100 µM (inactive); GI50 (NCI-H226): > 100 µM (inactive); GI50 (CCRF-CEM): > 100 µM (inactive); GI50 (MDA-N): > 100 µM (inactive); GI50 (HOP-92): > 100 µM (inactive); GI50 (OVCAR-8): > 100 µM (inactive); GI50 (SK-MEL-5): > 100 µM (inactive); GI50 (KM12): > 100 µM (inactive); GI50 (A549): > 100 µM (inactive); GI50 (T47D): > 100 µM (inactive); GI50 (SF-268): > 100 µM (inactive); GI50 (Hs-578T): > 100 µM (inactive); GI50 (UACC-257): > 100 µM (inactive); GI50 (UO-31): 77.8 µM (inactive); GI50 (SW-620): > 100 µM (inactive); GI50 (COLO 205): > 100 µM (inactive); GI50 (BT-549): 42.9 µM (inactive); GI50 (ACHN): > 100 µM (inactive); GI50 (SK-MEL-28): > 100 µM (inactive); GI50 (SK-MEL-2): > 100 µM (inactive); GI50 (MCF7): > 100 µM (inactive)

Reference: ChEMBL document CHEMBL1201862, “PubChem BioAssay data set” (2004)
